The values below come from publication PMC3462775 (PLoS ONE, 2012).

Entries after “also recorded” stand apart in the source; their conditions may differ.

The test system of one data set is elastase. Kind of data set: Pseudomonas aeruginosa elastase (3 µg, Calbiochem) in 300 µl 20 mM Tris-HCl, 1 mM CaCl2 pH 7.8. The following applies: 37°C, up to 24 h.
The subject of a further data set is aureolysin. Kind of data set: Staphylococcus aureus aureolysin (3 µg, BioCol GmbH) in 300 µl 20 mM Tris-HCl, 1 mM CaCl2 pH 7.8. The following applies: 37°C, up to 24 h.

With KKIRVRLSA, in the data set with elastase, the cleaved bond entry is given as “R6-L7, 5 h; also recorded: S8-A9, 5 h” and the not cleaved entry was “resisted degradation by elastase for 24 h”. For the same sequence, in the data set on aureolysin, the cleaved bond result is “R6-L7, 1h; also recorded: S8-A9, 1h” and the not cleaved entry was “remaining unaltered after 24 h of incubation”.
